Results taken from the NIST ThermoML archive (doi:10.1021/acs.jced.7b00221).
± gives the expanded uncertainty stated by the source.

Test: xn = mol fraction of the nth substance listed
Conditions: 100 kPa, Liquid; for viscosity: Cone and plate viscometry; for mass density: Vibrating tube method

CCn1cc[n+](C)c1.O=S(=O)([N-]S(=O)(=O)C(F)(F)F)C(F)(F)F + CCCCCC[n+]1ccn(C)c1.O=S(=O)([N-]S(=O)(=O)C(F)(F)F)C(F)(F)F
Conditions	mass density [kg/m3]	viscosity [mPa·s]
278.15 K, x2 = 0	–	80 ± 10
278.15 K, x2 = 0.15	–	89 ± 11
278.15 K, x2 = 0.3	–	95 ± 12
278.15 K, x2 = 0.5	–	120 ± 15
278.15 K, x2 = 0.7	–	153 ± 19
278.15 K, x2 = 0.85	–	181 ± 22
283.15 K, x2 = 0	1534.1 ± 4.1	63 ± 8
283.15 K, x2 = 0.15	1507.1 ± 4.1	70 ± 8
283.15 K, x2 = 0.3	1481.8 ± 4.1	74 ± 9
283.15 K, x2 = 0.5	1451 ± 4.1	92 ± 11
283.15 K, x2 = 0.7	1422.9 ± 4	116 ± 14
283.15 K, x2 = 0.85	1403.6 ± 4	135 ± 16
288.15 K, x2 = 0	1529 ± 4.1	50 ± 6
288.15 K, x2 = 0.15	1502.1 ± 4.1	56 ± 7
288.15 K, x2 = 0.3	1476.9 ± 4.1	58 ± 7
288.15 K, x2 = 0.5	1446.3 ± 4.1	72 ± 9
288.15 K, x2 = 0.7	1418.2 ± 4	89 ± 11
288.15 K, x2 = 0.85	1399 ± 4	102 ± 12
293.15 K, x2 = 0	1523.9 ± 4.1	–
293.15 K, x2 = 0.15	1497.1 ± 4.1	–
293.15 K, x2 = 0.3	1472 ± 4.1	–
293.15 K, x2 = 0.5	1441.5 ± 4.1	58 ± 7
293.15 K, x2 = 0.7	1413.5 ± 4	70 ± 8
293.15 K, x2 = 0.85	1394.4 ± 4	79 ± 10
295.15 K, x2 = 0	1521.9 ± 4.1	–
295.15 K, x2 = 0.15	1495.1 ± 4.1	–
295.15 K, x2 = 0.3	1470.1 ± 4.1	–
295.15 K, x2 = 0.5	1439.6 ± 4	–
295.15 K, x2 = 0.7	1411.6 ± 4	–
295.15 K, x2 = 0.85	1392.5 ± 4	–
298.15 K, x2 = 0	1518.9 ± 4	–
298.15 K, x2 = 0.15	1492.2 ± 4.1	–
298.15 K, x2 = 0.3	1467.2 ± 4.1	–
298.15 K, x2 = 0.5	1436.7 ± 4	–
298.15 K, x2 = 0.7	1408.8 ± 4	57 ± 7
298.15 K, x2 = 0.85	1389.7 ± 4	63 ± 8
303.15 K, x2 = 0	1513.9 ± 4	–
303.15 K, x2 = 0.15	1487.2 ± 4.1	–
303.15 K, x2 = 0.3	1462.3 ± 4.1	–
303.15 K, x2 = 0.5	1431.9 ± 4	–
303.15 K, x2 = 0.7	1404.1 ± 4	–
303.15 K, x2 = 0.85	1385.1 ± 4	51 ± 6
308.15 K, x2 = 0	1508.9 ± 4	–
308.15 K, x2 = 0.15	1482.3 ± 4.1	–
308.15 K, x2 = 0.3	1457.5 ± 4.1	–
308.15 K, x2 = 0.5	1427.2 ± 4	–
308.15 K, x2 = 0.7	1399.5 ± 4	–
308.15 K, x2 = 0.85	1380.5 ± 4	–
313.15 K, x2 = 0	1503.9 ± 4	–
313.15 K, x2 = 0.15	1477.4 ± 4.1	–
313.15 K, x2 = 0.3	1452.7 ± 4.1	–
313.15 K, x2 = 0.5	1422.5 ± 4	–
313.15 K, x2 = 0.7	1394.8 ± 4	–
313.15 K, x2 = 0.85	1375.9 ± 4	–
318.15 K, x2 = 0	1499 ± 4	–
318.15 K, x2 = 0.15	1472.5 ± 4.1	–
318.15 K, x2 = 0.3	1447.9 ± 4.1	–
318.15 K, x2 = 0.5	1417.8 ± 4	–
318.15 K, x2 = 0.7	1390.1 ± 4	–
318.15 K, x2 = 0.85	1371.3 ± 4	–
323.15 K, x2 = 0	1494.1 ± 4	–
323.15 K, x2 = 0.15	1467.7 ± 4.1	–
323.15 K, x2 = 0.3	1443.1 ± 4.1	–
323.15 K, x2 = 0.5	1413.1 ± 4	–
323.15 K, x2 = 0.7	1385.5 ± 4	–
323.15 K, x2 = 0.85	1366.8 ± 4	–
328.15 K, x2 = 0	1489.1 ± 4	–
328.15 K, x2 = 0.15	1462.8 ± 4.1	–
328.15 K, x2 = 0.3	1438.3 ± 4.1	–
328.15 K, x2 = 0.5	1408.4 ± 4	–
328.15 K, x2 = 0.7	1380.9 ± 4	–
328.15 K, x2 = 0.85	1362.2 ± 4	–
333.15 K, x2 = 0	1484.2 ± 4	–
333.15 K, x2 = 0.15	1458 ± 4.1	–
333.15 K, x2 = 0.3	1433.5 ± 4.1	–
333.15 K, x2 = 0.5	1403.7 ± 4	–
333.15 K, x2 = 0.7	1376.2 ± 4	–
333.15 K, x2 = 0.85	1357.7 ± 4	–
338.15 K, x2 = 0	1479.3 ± 4	–
338.15 K, x2 = 0.15	1453.2 ± 4.1	–
338.15 K, x2 = 0.3	1428.8 ± 4	–
338.15 K, x2 = 0.5	1399 ± 4	–
338.15 K, x2 = 0.7	1371.6 ± 4	–
338.15 K, x2 = 0.85	1353.2 ± 4	–
343.15 K, x2 = 0	1474.4 ± 4	–
343.15 K, x2 = 0.15	1448.4 ± 4.1	–
343.15 K, x2 = 0.3	1424.1 ± 4	–
343.15 K, x2 = 0.5	1394.4 ± 4	–
343.15 K, x2 = 0.7	1367 ± 4	–
343.15 K, x2 = 0.85	1348.6 ± 4	–
348.15 K, x2 = 0	1469.6 ± 4	–
348.15 K, x2 = 0.15	1443.6 ± 4.1	–
348.15 K, x2 = 0.3	1419.4 ± 4	–
348.15 K, x2 = 0.5	1389.8 ± 4	–
348.15 K, x2 = 0.7	1362.3 ± 4	–
348.15 K, x2 = 0.85	1344.1 ± 4	–
353.15 K, x2 = 0	1464.7 ± 4	–
353.15 K, x2 = 0.15	1438.8 ± 4.1	–
353.15 K, x2 = 0.3	1414.7 ± 4	–
353.15 K, x2 = 0.5	1385.2 ± 4	–
353.15 K, x2 = 0.7	1357.7 ± 4	–
353.15 K, x2 = 0.85	1339.7 ± 4	–
